Paper PMC8119466, “A screen of FDA-approved drugs identifies inhibitors of protein tyrosine phosphatase 4A3 (PTP4A3 or PRL-3)” (Scientific Reports, 2021)
Where two headings read alike, the source gives them in different places.

Legend:
[1] = test system: HEK293T cells; test: Scratch (migration) assay, HEK293T transfected with PRL-3 or empty vector; format: cell-based, human; details: HEK293T transfected with PRL-3, 24 h, compared to DMSO
Procedure: pENTR-PRL-3 (previously described[51]) was cloned into pLKO-CMV-puro using LR clonase (Thermofisher, 11,791,019) according to manufacturer’s directions. pLKO-CMV empty vector (EV) and pLKO-CMV:PRL-3 were transfected into HEK293T using Lipofectamine 3000 (ThermoFisher, L3000015) according to manufacturer’s protocol. Transfected cells were selected with 1 µg/mL puromycin in complete media to establish the cell line, then were maintained under 0.5 µg/mL puromycin in complete media. For PRL-3 knockdown, pLKO.1-scrambled shRNA and pLKO.1-PRL-3 shRNA[51] plasmids were transfected into HCT116 cells using Lipofectamine 3000 (Thermo Fisher, Cat # L3000015) according to the manufacturer’s directions. Cells were selected for 48 h in 1 µg/mL puromycin before use in assays.
Cells were seeded into duplicate wells of a 48 well plates at a density of 2 × 10^5 cells per well for HEK293T or 4 × 10^5 for HCT116 and SW480. Cells were recovered overnight and were scratched using a p20 pipette tip the following day. Compounds were added at the concentrations indicated. Images were obtained immediately after the scratch and after a 24 h incubation with the drug on an Evos FL inverted microscope (ThermoFisher). The area within the scratch was calculated using ImageJ. The area migrated was measured as the difference in wound area at 0 h and 24 h and the percent change in migration was calculated by dividing the difference in wound area of treatment by the difference in wound area of the control.

[2] = biological target: T1, recombinant PRL-1 (Homo sapiens, UniProt Q93096); test: In vitro phosphatase assay (DiFMUP hydrolysis), PRL-1; format: biochemical; details: for IC50: DiFMUP at KM, read-out: Calculated IC50, PRL-1 phosphatase activity; for % Phosphatase Activity (compared to DMSO) PRL-1: FDA-approved drug screen
T1 construct: 6xHis (N, cleaved yes); made in house; host or cells: E. coli One Shot BL21 Star
T1 sequence (Q93096 1-173): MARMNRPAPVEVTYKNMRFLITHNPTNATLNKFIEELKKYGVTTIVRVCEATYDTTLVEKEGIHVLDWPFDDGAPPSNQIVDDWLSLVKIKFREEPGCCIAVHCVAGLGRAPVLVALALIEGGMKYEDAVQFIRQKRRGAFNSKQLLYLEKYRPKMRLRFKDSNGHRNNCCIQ

[3] = biological target: T2, recombinant PRL-3 (Homo sapiens, UniProt O75365); test: In vitro phosphatase assay (DiFMUP hydrolysis), PRL-3; format: biochemical; details: for IC50: DiFMUP at KM, read-out: Calculated IC50, PRL-3 phosphatase activity; for % Phosphatase Activity (compared to DMSO) PRL-3: FDA-approved drug screen
T2 construct: 6xHis (N, cleaved yes); made in house; host or cells: E. coli One Shot BL21 Star

[4] = biological target: T3, recombinant PRL-2 (Homo sapiens, UniProt Q12974); test: In vitro phosphatase assay (DiFMUP hydrolysis), PRL-2; format: biochemical; details: for IC50: DiFMUP at KM, read-out: Calculated IC50, PRL-2 phosphatase activity; for % Phosphatase Activity (compared to DMSO) PRL-2: FDA-approved drug screen;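 on all read-outs here: PRL-2 activity read as DiFMUP hydrolysis after 20 min at room temperature with drug, enzyme first pre-reduced at 4 °C for 20 min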
T3 construct: 6xHis (N, cleaved yes); made in house; host or cells: E. coli One Shot BL21 Star
T3 sequence (Q12974 1-167): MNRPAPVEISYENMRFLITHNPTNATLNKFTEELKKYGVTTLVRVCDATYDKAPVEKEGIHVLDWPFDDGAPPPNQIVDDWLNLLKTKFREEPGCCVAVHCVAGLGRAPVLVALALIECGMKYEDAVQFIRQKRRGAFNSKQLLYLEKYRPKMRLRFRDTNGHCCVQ

[5] = test system: HEK293T cells; test: MTT viability assay; format: cell-based, human; details: drug doses 1 to 100 µM, 16 h, normalized to 1% DMSO
Procedure: Cells were seeded into duplicate wells of a 96 well plate at a density of 2 × 10^4 cells per well and allowed to recover for 24 h. Cells were then treated with drug or DMSO at the indicated concentrations for 16 h. Following drug treatment, 10 μL of 5 mg/ml MTT (Sigma, M5655) was added to each well and cells were incubated for 4 h. Finally, media were removed, and the dye was solubilized in 100 μL of 0.1 M HCl in isopropanol. Absorbance was measured at 570 nm and 690 nm with final absorbance measurements as 570–690 nm.

T2 sequence (O75365 whole entry): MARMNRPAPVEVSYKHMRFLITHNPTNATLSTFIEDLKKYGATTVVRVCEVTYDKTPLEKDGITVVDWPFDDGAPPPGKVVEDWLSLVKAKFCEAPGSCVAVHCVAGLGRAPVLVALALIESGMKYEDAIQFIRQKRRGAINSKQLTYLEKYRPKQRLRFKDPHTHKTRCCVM

COc1cc(C(=O)O)ccc1NC(=O)[C@@H]1N[C@@H](CC(C)(C)C)[C@](C#N)(c2ccc(Cl)cc2F)[C@H]1c1cccc(Cl)c1F [Idasanutlin, reference compound]
cellular migration in PRL-3 overexpressing cells [1]: less significant effects on the migration of PRL-3 expressing cells | IC50 ([2]; 2.5 µM protein): 20000 ± 3000 nM | IC50 ([3]; 2.5 µM protein): 13000 ± 400 nM | IC50 ([4]; 2.5 µM protein): 16000 ± 2000 nM | viability (MTT) [5]: decreased viability

CC(=O)c1cc2c(o1)C(=O)c1ccccc1C2=O [Napabucasin, reference compound]
cellular migration in PRL-3 overexpressing cells [1]: less significant effects on the migration of PRL-3 expressing cells | IC50 ([2]; 2.5 µM protein): 400 ± 200 nM | % Phosphatase Activity (compared to DMSO) PRL-1 ([2]; compared to DMSO): 16% | IC50 ([3]; 2.5 µM protein): 700 ± 100 nM | % Phosphatase Activity (compared to DMSO) PRL-3 ([3]; compared to DMSO): 10% | IC50 ([4]; 2.5 µM protein): 1100 ± 300 nM | % Phosphatase Activity (compared to DMSO) PRL-2 ([4]; compared to DMSO): 26% | viability (MTT) [5]: decreased viability

COCCn1c2c([n+](Cc3cnccn3)c1C)C(=O)c1ccccc1C2=O [YM155, reference compound]
cellular migration in PRL-3 overexpressing cells [1]: less significant effects on the migration of PRL-3 expressing cells | IC50 ([2]; 2.5 µM protein): 300 ± 100 nM | IC50 ([3]; 2.5 µM protein): 300 ± 100 nM | IC50 ([4]; 2.5 µM protein): 700 ± 100 nM | viability (MTT) [5]: decreased viability

Vitamin B12 [reference compound]
% Phosphatase Activity (compared to DMSO) PRL-1 ([2]; activity compared to DMSO): 2.68% | IC50 ([2]; […] protein): 700 ± 200 nM | % Phosphatase Activity (compared to DMSO) PRL-3 ([3]; activity compared to DMSO): -2% | IC50 ([3]; […] protein): 900 ± 100 nM | % Phosphatase Activity (compared to DMSO) PRL-2 ([4]; activity compared to DMSO): -16% | IC50 ([4]; […] protein): 900 ± 200 nM | viability (MTT) [5]: no effect on the viability
